Assay results taken from US4636499A, “Sulphenamides” (priority 1984, dated 1987).

Tests used:
[1] = target: T1, Hog gastric H^+,K^+ -ATPase (Sus scrofa, UniProt P19156); assay: In vitro inhibition of gastric H^+,K^+-ATPase; type: biochemical; conditions: pH 7,4; 30 minutes of incubation; 10 μg membrane protein (GI-fraction); read-out: concentration at half-maximal inhibition (IC50) (converted)
T1 construct: from tissue; host or cells: hog gastric membranes (GI-fraction)
Procedure: I. In vitro inhibition of gastric H^+,K^+ -ATPase
Hog gastric H^+,K^+ -ATPase was purified according to Saccomani et al., Biochim. Biophys. Acta 465, 311-330, 1977. 10 μg of membrane protein (GI-fraction in the reference listed above) was incubated with 2 mmol/l of piperazine-N,N'-bis-(2-ethane sulfonic acid) buffer pH 7,4 and the test compound in concentrations 10^-7 -10^-4 M in a final volume of 1 ml. (The test compound was dissolved in methanol. Aliquots of these stock solutions were diluted to a final methanol concentration below 1%, which on its own had no effect on the enzyme activities.) After 30 minutes of incubation, the remaining H^+,K^+ -ATPase activity was determined, according to Wallmark et al., Biochim. Biophys. Acta, 728, 31-38, 1983. A dose-response curve was constructed and the concentration at half-maximal inhibition (IC50) could be determined.

[2] = system: gastric acid secretion; assay: Inhibiting effect in vivo on gastric acid secretion in conscious dog; conditions: 4 μmol/kg; orally by stomach tube; histamine-induced; gastric fistula dogs
Procedure: II. Inhibiting effect in vivo on gastric acid secretion in conscious dog
Chronic gastric fistula dogs were used. These dogs have been surgically provided with a gastric cannula in the stomach and a duodenal fistula used for direct intraduodenal administration of test compounds. Following a 4 weeks' recovery period after surgery, tests were performed once a week on each dog. Food and water were withdrawn 18 hours before each test.
The test compound was suspended in 0.5% Methocel® (90 HG, 15.000, Dow Chem Corp.), the pH was immediately adjusted to about 4 by addition of hydrochloric acid and the suspension administered orally by using a stomach tube. After 1 hour gastric acid secretion was induced by continuous infusion of histamine at individual doses (400-600 nmol/kg, h), resulting in approx. 90% of maximal secretion of gastric acid. The gastric juice was collected by free flow from the gastric cannula in consecutive 30 minutes samples for 2 hours. The samples were titrated to pH 7.0 with 0.1M NaOH using a Radiometer automatic titrator and the acid output was calculated. The percent inhibition of acid secretion was calculated by comparing in each dog the acid output in the tests to the acid output in control tests when only the vehicle was given. The peak inhibitory effect for each compound was determined. […]

[3] = system: ethanol-induced gastric lesions; assay: In vivo cytoprotective effect: effect on ethanol-induced gastric lesions in the rat; parameters: species or system rat (female Spraque-Dawley); conditions: for total lengths of lesions in the stomachs: 20 μmol/kg oral
Procedure: III. In vivo cytoprotective effect: Effect on ethanol-induced gastric lesions in the rat
Two groups of female Spraque-Dawley rats (190-220 g) were used, one for the test compound and one for the control experiment. Food, but not water, was removed 24 h before the experiments.
The animals in the test group were treated orally with the test compound dissolved in 0.01M HCl immediately before the test and the animals in the control group were given the vehicle (0.01M HCl) in a dose of 1 ml/kg.
Five or thirty minutes later the rats were given orally 1 ml of absolute ethanol (a standard agent for inducing gastric mucosal lesions).
Thirty minutes later the rats were killed by carbon dioxide asphyxiation, their stomachs dissected out and the gastric mucosae were examined for the presence of necrotic lesions. The total lengths of the lesions in the stomachs were measured in the test group and in the control group, in both cases treated five and thirty minutes before with ethanol.

T1 sequence (P19156 2-1034 limits assumed): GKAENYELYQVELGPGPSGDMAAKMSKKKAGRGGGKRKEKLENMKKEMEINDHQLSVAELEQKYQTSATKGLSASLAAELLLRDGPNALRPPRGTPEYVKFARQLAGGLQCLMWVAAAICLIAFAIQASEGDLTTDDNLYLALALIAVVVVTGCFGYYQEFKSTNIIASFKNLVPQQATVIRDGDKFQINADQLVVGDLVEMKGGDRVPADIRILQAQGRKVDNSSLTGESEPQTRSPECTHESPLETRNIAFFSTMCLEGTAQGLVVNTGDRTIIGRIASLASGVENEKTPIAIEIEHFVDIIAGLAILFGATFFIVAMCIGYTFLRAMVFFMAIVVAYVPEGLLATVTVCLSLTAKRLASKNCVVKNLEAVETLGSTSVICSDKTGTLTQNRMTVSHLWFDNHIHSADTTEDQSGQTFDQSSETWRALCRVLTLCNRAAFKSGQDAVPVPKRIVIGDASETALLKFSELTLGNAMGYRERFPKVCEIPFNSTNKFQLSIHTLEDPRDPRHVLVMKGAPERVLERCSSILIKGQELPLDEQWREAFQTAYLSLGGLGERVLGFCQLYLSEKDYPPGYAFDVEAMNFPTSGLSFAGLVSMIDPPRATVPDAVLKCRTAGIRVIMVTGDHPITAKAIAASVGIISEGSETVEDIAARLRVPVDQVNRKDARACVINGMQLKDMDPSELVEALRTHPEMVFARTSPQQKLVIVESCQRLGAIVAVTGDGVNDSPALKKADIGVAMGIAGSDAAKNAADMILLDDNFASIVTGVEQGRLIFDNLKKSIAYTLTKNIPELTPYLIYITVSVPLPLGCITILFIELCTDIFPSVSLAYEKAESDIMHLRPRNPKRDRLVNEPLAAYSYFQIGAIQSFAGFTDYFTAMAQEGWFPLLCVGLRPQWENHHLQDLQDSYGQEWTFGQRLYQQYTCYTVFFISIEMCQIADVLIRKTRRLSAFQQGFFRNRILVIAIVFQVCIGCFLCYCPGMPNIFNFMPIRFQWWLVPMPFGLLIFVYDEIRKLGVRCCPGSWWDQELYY
T1 sequence (P18434 whole entry partner): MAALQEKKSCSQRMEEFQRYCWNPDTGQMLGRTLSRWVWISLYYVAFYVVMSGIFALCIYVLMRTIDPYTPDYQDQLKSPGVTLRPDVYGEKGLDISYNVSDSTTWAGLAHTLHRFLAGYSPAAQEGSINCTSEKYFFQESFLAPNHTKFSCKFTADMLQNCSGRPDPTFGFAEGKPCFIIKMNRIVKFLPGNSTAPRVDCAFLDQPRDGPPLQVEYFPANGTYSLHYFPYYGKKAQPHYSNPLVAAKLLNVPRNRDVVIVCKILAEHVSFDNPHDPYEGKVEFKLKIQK

2,4-Dimethyl-3,9-dimethoxy-5H-pyrido[1',2':4,5][1,2,4]thiadiazino[2,3-a]benzimidazol-13-ium tetrafluoroborate (1A) and 2,4-Dimethyl-3,10-dimethoxy-5H-pyrido[1',2':4,5][1,2,4]thiadiazino[2,3-a]benzimidazol-13-ium tetrafluoroborate (1B) (isomeric mixture) [Examples 1A and 1B]
IC50 [1]: 600 nM
percent inhibition of acid secretion (peak inhibitory effect) [2]: 40%
total lengths of lesions in the stomachs ([3]; 5 min before ethanol, control 11.4 cm): 5.3 cm
total lengths of lesions in the stomachs ([3]; 30 min before ethanol, control 10.4 cm): 4.4 cm
ED50-value (cytoprotective effect) ([3]; oral, ethanol-induced gastric lesions, indicated by lesion reduction at 20 μmol/kg): below 20 μmol/kg
